Test results published in paper PMC12966202 (Molecular Imaging and Biology, 2025).
Values joined by “and” are separate entries in the source; they are usually repeats but may differ in a detail not shown here. Equal values may be shown once.

Protocol: Subjects with localized known or suspected infection were recruited and provided informed consent according to guidelines of the University of Pennsylvania Institutional Review Board. […] The full study protocols are available at clinicaltrials.gov, NCT03424525 and were performed under the authority of the University of Pennsylvania Radioactive Drug Research Committee.
PET scans were acquired from head to mid-thigh over 15 min in 10 overlapping bed positions at 90 s per bed position with ~ 50% bed overlap. The first PET scan was started immediately following injection, followed by a second scan at 20 ± 3 min post-injection, and a third scan at 63 ± 4 min post-injection. Suspected infections outside of the dosimetry scan field of view were optionally imaged following the acquisition of the final dosimetry scan. Subjects had the option to void bladders between the second and third PET/CT scans and following the last scan, without urine collection. Images were reconstructed using a list-mode time-of-flight ordered subsets expectation maximization algorithm (TOF-OSEM). […] These images were reconstructed using TOF-OSEM, but were not included in the quantitative dosimetry results (Fig. 2).
Total activity in the brain, gallbladder, heart, intestines, kidneys, liver, lungs, pancreas, spleen, thyroids, and urinary bladder was assessed via PET with MIM v6.7 (MIM Software Inc.), using co-registered CT images to delineate regions of interest. To enable estimation of total activity in red bone marrow, tracer uptake and volume were measured based on activity concentrations in the 2nd to 4th lumbar vertebrae of each subject. Using a red marrow density of 1.03 g/mL and assuming that red marrow weight is 1.6% of total body weight, total red marrow activity was calculated for each subject. Time activity curves for organs were generated and in most cases fit to mono- or bi-exponential functions using OLINDA | EXM v1.1 software RRID:SCR_026835 [23]. For time activity curves that were poorly fit by exponential functions, a Riemann Sum was used to calculate numbers of disintegrations occurring in the organs. Dosimetry estimates were calculated using the Standard Adult Male phantom option in OLINDA.

[1] = average injected activity of 346 MBq (9.4 mCi)

COc1cc(Cc2cnc(N)nc2N)cc(OC)c1O[11CH3] [[^11C]TMP, [^11C]trimethoprim]
Effective dose (Mean ± SD, n = 4 males): 4.53E-03 mSv/MBq and 4.53E-03 ± 2.22E-04 mSv/MBq | Effective dose equivalent (Mean ± SD, n = 4 males): 6.08E-03 ± 3.49E-04 mSv/MBq | Mean absorbed dose estimate, Adrenals (Mean ± SD, n = 4 males): 3.47E-03 ± 1.13E-04 mSv/MBq | Mean absorbed dose estimate, Bone (red marrow) (Mean ± SD, n = 4 males): 3.75E-03 ± 4.17E-04 mSv/MBq | Mean absorbed dose estimate, Brain (Mean ± SD, n = 4 males): 1.37E-03 ± 3.00E-04 mSv/MBq | Mean absorbed dose estimate, Breasts (Mean ± SD, n = 4 males): 1.95E-03 ± 8.35E-05 mSv/MBq | Mean absorbed dose estimate, Heart wall (Mean ± SD, n = 4 males): 4.66E-03 ± 3.36E-04 mSv/MBq | Mean absorbed dose estimate, Kidneys (Mean ± SD, n = 4 males): 1.35E-02 mSv/MBq and 1.35E-02 ± 2.44E-03 mSv/MBq | Mean absorbed dose estimate, Liver (Mean ± SD, n = 4 males): 1.43E-02 mSv/MBq and 1.43E-02 ± 1.58E-03 mSv/MBq | Mean absorbed dose estimate, Lower large intestine wall (Mean ± SD, n = 4 males): 2.83E-03 ± 8.88E-05 mSv/MBq | Mean absorbed dose estimate, Lungs (Mean ± SD, n = 4 males): 5.62E-03 ± 1.05E-03 mSv/MBq | Mean absorbed dose estimate, Muscle (Mean ± SD, n = 4 males): 2.25E-03 ± 6.29E-05 mSv/MBq | Mean absorbed dose estimate, Osteogenic cells (Mean ± SD, n = 4 males): 3.98E-03 ± 2.42E-04 mSv/MBq | Mean absorbed dose estimate, Ovaries (Mean ± SD, n = 4 males): 3.07E-03 ± 1.25E-04 mSv/MBq | Mean absorbed dose estimate, Pancreas (Mean ± SD, n = 4 males): 5.27E-03 ± 2.20E-03 mSv/MBq | Mean absorbed dose estimate, Skin (Mean ± SD, n = 4 males): 1.73E-03 ± 6.60E-05 mSv/MBq | Mean absorbed dose estimate, Small intestine (Mean ± SD, n = 4 males): 9.29E-03 ± 2.33E-03 mSv/MBq | Mean absorbed dose estimate, Spleen (Mean ± SD, n = 4 males): 1.18E-02 mSv/MBq and 1.18E-02 ± 4.64E-03 mSv/MBq | Mean absorbed dose estimate, Stomach wall (Mean ± SD, n = 4 males): 2.83E-03 ± 6.34E-05 mSv/MBq | Mean absorbed dose estimate, Testes (Mean ± SD, n = 4 males): 2.03E-03 ± 1.05E-04 mSv/MBq | Mean absorbed dose estimate, Thymus (Mean ± SD, n = 4 males): 2.31E-03 ± 9.59E-05 mSv/MBq | Mean absorbed dose estimate, Thyroid (Mean ± SD, n = 4 males): 5.96E-03 ± 1.73E-03 mSv/MBq | Mean absorbed dose estimate, Total Body (Mean ± SD, n = 4 males): 2.84E-03 ± 6.24E-05 mSv/MBq | Mean absorbed dose estimate, Upper large intestine wall (Mean ± SD, n = 4 males): 4.86E-03 ± 7.38E-04 mSv/MBq | Mean absorbed dose estimate, Urinary bladder wall (Mean ± SD, n = 4 males): 1.10E-02 mSv/MBq and 1.10E-02 ± 5.55E-03 mSv/MBq | Mean absorbed dose estimate, Uterus (Mean ± SD, n = 4 males): 3.21E-03 ± 2.24E-04 mSv/MBq | Mean absorbed dose estimate, Gallbladder wall (Mean ± SD, one subject with cholecystectomy removed): 5.00E-03 ± 4.43E-04 mSv/MBq | background uptake in the brain (PET imaging, 4 adult males): low background uptake in the brain | estimated absorbed dose in the spleen [1]: 4.1 mSv | estimated effective dose [1]: 1.6 mSv | estimated absorbed dose in the liver (average injected activity of 346 MBq (9.4 mCi), highest uptake organ): 4.9 mSv
